Test results published in patent US20070248672A1, “Indole and Azaindole Derivatives with Antitumor Action” (priority 2004, published 2007).
Entries after “also recorded” stand apart in the source; their conditions may differ.

Key:
[1] = test system: HT29 cells; experiment: Co-treatment with topotecan, HT29 cells (Combination Index according to Kern); type: cell-based, human; conditions: HT29; compound at 4 μM (3 experiments) and 8 μM (2 experiments), subtoxic doses
Procedure: (§1) The cells (HT29 and HT29/Mit: 40,000 cells/ml, LoVo, LoVo/Dx and HCT116: 50,000 cells/ml) are seeded in 100 μl of the respective culture media in 96-well plates. 24 hours after seeding, an aliquot (10 μl) of drug at the various concentrations is added. In the samples in which the effect of the combination of two compounds is to be tested the inhibitor is added immediately before the cytotoxic. For each dose or combination of doses/drugs the effect of the treatment is determined in 4-8 replicates.
(§2) After 72 hours of treatment the antiproliferative effect is evaluated using the sulforhodamine B (SRB) assay: the cells are fixed by adding 25 μl of 50% TCA to each well and left for 1 hour at 4° C. After washing them with water and allowing them to dry, 100 μl of 0.4% SRB in 1% acetic acid are added and left for 30 minutes at room temperature. After 4 washes in 1% acetic acid, they are left to dry then the dye fixed by the proteins is dissolved under basic conditions with 100 μl 10 mM cold Tris and the solution is read using a spectrophotometer at 550 nm.
(§3) Percentage cell growth is calculated as the optical density of treated samples compared to the optical density of controls (untreated cells).
(§4) The Combination Index (C.I.) was determined according to Kern's method, 1988 (who continued from Drewinko B, 1976) (Kem D. H., Cancer Res. 48, 117-121, 1988; Drewinko B., Cancer Biochem. Biophys. 1, 187-195, 1976) by means of the following formula: […], where SFa and SFb are the fractions of cells surviving to treatment with compound a and b, respectively; SFab is the fraction surviving to the combination of compounds a and b. If the result is =1, the interaction between the two compounds is additive; if it is >1, the interaction between the two compounds is synergistic; if it is <1, the interaction between the two compounds is antagonistic.

[2] = test system: HT29/Mit cells; experiment: Co-treatment with topotecan, HT29/Mit resistant cells (Combination Index according to Kern); type: cell-based, human; conditions: HT29/Mit; compound at non-toxic concentrations 0.01-0.1 μM
Procedure: as §1, §2, §3, §4

[3] = test system: tumour cells; experiment: Antiproliferative effect on tumour cells, combined treatment with known antitumour agents; type: cell-based; conditions: with topotecan, SN38, taxol, doxorubicin and anthracyclines
Procedure: as §1, §4

[4] = target: Vacuolar ATPase in human osteoclastoma (hOc) (Homo sapiens, UniProt P27449+Q13488); experiment: Vacuolar ATPase inhibition in human osteoclastoma (hOc) microsomal fraction; type: biochemical; conditions: 30 min, 37° C.
Chain of Vacuolar ATPase in human osteoclastoma (hOc) (P27449 whole entry, looked up): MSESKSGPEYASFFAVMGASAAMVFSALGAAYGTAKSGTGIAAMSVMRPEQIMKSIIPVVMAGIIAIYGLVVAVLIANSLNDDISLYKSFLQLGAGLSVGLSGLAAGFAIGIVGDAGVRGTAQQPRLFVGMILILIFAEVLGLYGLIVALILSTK
Chain of Vacuolar ATPase in human osteoclastoma (hOc) (Q13488 whole entry, looked up): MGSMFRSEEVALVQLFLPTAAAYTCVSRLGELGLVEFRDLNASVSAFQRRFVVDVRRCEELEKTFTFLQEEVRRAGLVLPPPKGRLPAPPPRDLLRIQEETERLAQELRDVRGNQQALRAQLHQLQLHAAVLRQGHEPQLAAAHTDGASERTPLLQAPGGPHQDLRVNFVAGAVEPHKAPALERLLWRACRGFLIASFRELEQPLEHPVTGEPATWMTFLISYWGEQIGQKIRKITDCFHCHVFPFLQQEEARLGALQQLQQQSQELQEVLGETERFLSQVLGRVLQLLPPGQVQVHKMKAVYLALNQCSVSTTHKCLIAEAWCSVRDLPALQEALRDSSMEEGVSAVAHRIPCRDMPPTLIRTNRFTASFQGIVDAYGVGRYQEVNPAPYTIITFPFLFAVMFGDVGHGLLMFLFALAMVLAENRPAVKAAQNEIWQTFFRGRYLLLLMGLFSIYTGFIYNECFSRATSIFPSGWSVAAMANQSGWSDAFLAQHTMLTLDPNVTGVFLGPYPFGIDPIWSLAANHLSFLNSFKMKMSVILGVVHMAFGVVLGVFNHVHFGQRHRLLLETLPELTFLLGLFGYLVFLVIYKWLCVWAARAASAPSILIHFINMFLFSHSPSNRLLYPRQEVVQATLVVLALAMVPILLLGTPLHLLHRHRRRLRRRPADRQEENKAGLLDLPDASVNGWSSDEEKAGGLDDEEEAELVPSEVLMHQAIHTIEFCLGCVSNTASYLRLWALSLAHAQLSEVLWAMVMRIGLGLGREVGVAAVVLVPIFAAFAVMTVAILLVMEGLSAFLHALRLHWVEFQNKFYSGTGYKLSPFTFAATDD
Procedure: 1.1 Determination of Vacuolar ATpase Inhibition in Human Osteoclastoma (hOc)
Osteoclast-like giant cells isolated from human osteoclastoma are homogenized using a glass-teflon homogeniser (1000 rpm) and the material is centrifuged for 20 minutes at 6000 g. The resultant pellet is resuspended and centrifuged at 100000 g for 60 minutes to sediment the microsomal fraction. The resultant pellet is resuspended in medium at pH 7.4 and stored under liquid nitrogen.
Inhibition of bafilomycin sensitive ATPase activity is assayed by measuring the release of inorganic phosphate during 30 minutes of incubation, at 37° C., of the human osteoclastoma microsomal fraction in 96-well plates. The reaction medium contains 1 mM ATP, 10 mM Hepes-Tris buffer pH 8, 50 mM KCl, 5 μM valinomycin, 5 μM nigericin, 1 mM CDTA-Tris, 100 μM ammonium molybdate, 0.2 M sucrose and the microsomal fraction (20 μg protein/ml). The reaction is initiated by adding MgSO4 and terminated, after 30 minutes, by adding 4 volumes of the reagent malachite green, prepared according to Chan K., Anal. Biochem. 157, 375-380, 1986.

With `COC(=O)c1[nH]c2cc(OC)c(OC)cc2c1-c1ccc(OC)cc1` [Example 1, 5,6-Dimethoxy-3-(4-methoxy-phenyl)-1H-indole-2-carboxylic acid methyl ester] the “effect of combination with topotecan (Combination Index according to Kern)” value [1] was “clear synergistic effect”, the “effect of co-treatment with topotecan” value [2] was “synergism; also recorded: clear synergistic effect” and the “effect in combination with cytotoxic agents” value [3] was “marked synergistic effects”. For the same compound, the IC50 [4] was 500 nM.
